Measured values published in PMC9917550, “Discovery of Novel Thiazolidinedione-Derivatives with Multi-Modal Antidiabetic Activities In Vitro and In Silico” (International Journal of Molecular Sciences, 2023).

Key:
liver cells (HEP-G2) = experiment: Glucose uptake in liver cells; type: cell-based; details: 25, 50 and 100 µg/mL, 24 h, versus control
Experimental: HEPG-2 liver cells were cultured in MEME supplemented with pen/strep (1%) and FBS (10%) in a […] under tissue culture conditions. Upon confluency (80%), cells were trypsinized and seeded into the 96-well plates. Upon confluency, the cell preparations were exposed to different concentrations (25, 50, and 100 µg/mL) of TZDDs, and a media glucose reading was taken before incubation (time = 0). Thereafter, the plates containing cells and treatments were incubated for 24 h under tissue culture conditions. The non-treated cells and insulin treated cells served as absolute and positive controls, respectively. After a 24 h incubation, the medium glucose was taken using a glucometer. The percentage glucose uptake was calculated as follows:
Glucose uptake (%) = (T24/T0) × 100

α-glucosidase [1] = target: T1, α-glucosidase (Saccharomyces cerevisiae, UniProt P53341); type: biochemical
T1 sequence (P53341 whole entry): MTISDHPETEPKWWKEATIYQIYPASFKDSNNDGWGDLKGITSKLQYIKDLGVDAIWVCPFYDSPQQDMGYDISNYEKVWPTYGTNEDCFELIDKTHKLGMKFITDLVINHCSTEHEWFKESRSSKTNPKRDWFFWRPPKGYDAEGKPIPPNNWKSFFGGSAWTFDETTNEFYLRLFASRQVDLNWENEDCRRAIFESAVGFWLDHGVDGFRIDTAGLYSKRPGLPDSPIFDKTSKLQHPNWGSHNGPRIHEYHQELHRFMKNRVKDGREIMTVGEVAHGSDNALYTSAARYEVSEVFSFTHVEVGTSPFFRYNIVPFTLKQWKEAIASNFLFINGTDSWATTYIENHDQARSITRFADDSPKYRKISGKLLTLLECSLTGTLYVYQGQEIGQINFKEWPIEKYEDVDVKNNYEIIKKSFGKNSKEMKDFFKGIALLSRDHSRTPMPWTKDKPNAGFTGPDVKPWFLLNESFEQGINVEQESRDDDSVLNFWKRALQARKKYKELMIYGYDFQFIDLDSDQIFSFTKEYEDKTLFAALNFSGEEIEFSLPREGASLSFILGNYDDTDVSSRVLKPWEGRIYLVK

α-amylase = target: T2, α-amylase (Sus scrofa, UniProt P00690); experiment: α-amylase inhibition assay; type: biochemical; details: 10-50 µg/mL, versus control, p < 0.05
T2 sequence (P00690 16-511): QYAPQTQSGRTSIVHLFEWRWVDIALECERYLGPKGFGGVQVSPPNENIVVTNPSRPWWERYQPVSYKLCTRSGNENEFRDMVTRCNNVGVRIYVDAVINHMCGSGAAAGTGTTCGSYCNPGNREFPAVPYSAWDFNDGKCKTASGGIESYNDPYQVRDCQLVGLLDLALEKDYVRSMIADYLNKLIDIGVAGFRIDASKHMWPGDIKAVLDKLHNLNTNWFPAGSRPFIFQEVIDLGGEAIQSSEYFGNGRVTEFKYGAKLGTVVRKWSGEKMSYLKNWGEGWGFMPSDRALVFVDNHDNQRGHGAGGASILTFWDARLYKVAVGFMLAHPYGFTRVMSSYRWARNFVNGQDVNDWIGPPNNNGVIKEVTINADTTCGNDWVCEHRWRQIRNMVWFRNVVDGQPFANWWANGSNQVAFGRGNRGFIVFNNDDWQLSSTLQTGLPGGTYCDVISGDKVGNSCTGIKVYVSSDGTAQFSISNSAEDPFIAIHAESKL
Experimental: The α-amylase inhibitory activity was determined using the method described by the Worthington Enzyme Manual with slight modifications. The TZD derivatives were assayed at 10, 20, 30, 40, and 50 µg/mL. […] The sodium phosphate buffer was used as a blank. The inhibitory activity was calculated according to the equation:
Inhibition (%) = ((Acontrol − Asample)/Acontrol) × 100%, where Acontrol was the absorbance of the control (without the inhibitor); Asample was the absorbance in the presence of TZD derivatives.

aldose reductase = aldose reductase (Homo sapiens, UniProt P15121); experiment: Aldose reductase inhibition assay; type: biochemical; details: for IC50: read-out: IC50 for the Inhibitory Activity Assays, AR (converted); for aldose reductase inhibitory activity (in words): 10-50 µg/mL, versus control, p < 0.05
Experimental: The aldose reductase (AR) inhibition assay was performed according to the method described by Kazeem et al. with minor modifications. All the TZD derivatives were assayed at 10, 20, 30, 40, and 50 µg/mL. […] The absolute standard contained all the reagents used except for the inhibitor compounds. The aldose reductase inhibition activity was calculated as a percentage inhibition from:
(§1) % Inhibition = [(∆Abscontrol − ∆Abssample)/∆Abscontrol] × 100%, where ∆Abs is the change is absorbance.

[2] = target: T3, protein tyrosine phosphatase-1B (PTP-1B) (Homo sapiens, UniProt P18031); experiment: Protein tyrosine phosphatase-1B inhibition assay; type: biochemical; details: for PTP-1B inhibitory activity (in words): 10-50 µg/mL, versus control; for IC50: read-out: IC50 for the Inhibitory Activity Assays, PTP-1B (converted)
T3 sequence (P18031 1-435): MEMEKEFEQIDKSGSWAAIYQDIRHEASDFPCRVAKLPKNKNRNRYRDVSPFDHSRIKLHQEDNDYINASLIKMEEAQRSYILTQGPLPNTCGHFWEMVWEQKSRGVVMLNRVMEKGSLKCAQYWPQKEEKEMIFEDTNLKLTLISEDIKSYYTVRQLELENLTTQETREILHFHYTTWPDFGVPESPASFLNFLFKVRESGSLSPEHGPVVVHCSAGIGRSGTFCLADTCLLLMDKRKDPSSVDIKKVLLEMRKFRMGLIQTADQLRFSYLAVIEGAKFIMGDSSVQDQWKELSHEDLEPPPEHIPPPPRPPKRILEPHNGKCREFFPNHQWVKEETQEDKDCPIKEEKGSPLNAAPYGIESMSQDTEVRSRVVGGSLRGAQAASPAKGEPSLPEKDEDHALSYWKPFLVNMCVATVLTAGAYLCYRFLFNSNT
Experimental: The protein tyrosine phosphatase-1B (PTP-1B) inhibition assay was performed according to the method described by Song et al. with some modifications. […] The absolute control contained all the reagents used except the inhibitor compounds. The inhibition activity was calculated using:
as §1

DPP-4 = target: T4, DPP-4 (Homo sapiens, UniProt P27487); experiment: Dipeptidyl peptidase-4 inhibition assay (DPP-4 Inhibitor Screening Kit); type: biochemical; details: for DPP-4 inhibition: 10, 20, 30, 40 and 50 µg/mL; for IC50: read-out: IC50 for the Inhibitory Activity Assays, DPP-4 (converted); for DPP-4 inhibitory activity (in words): 10-50 µg/mL, versus control
T4 construct: purchased Sigma-Aldrich MAK203
T4 sequence (P27487 whole entry, species assumed): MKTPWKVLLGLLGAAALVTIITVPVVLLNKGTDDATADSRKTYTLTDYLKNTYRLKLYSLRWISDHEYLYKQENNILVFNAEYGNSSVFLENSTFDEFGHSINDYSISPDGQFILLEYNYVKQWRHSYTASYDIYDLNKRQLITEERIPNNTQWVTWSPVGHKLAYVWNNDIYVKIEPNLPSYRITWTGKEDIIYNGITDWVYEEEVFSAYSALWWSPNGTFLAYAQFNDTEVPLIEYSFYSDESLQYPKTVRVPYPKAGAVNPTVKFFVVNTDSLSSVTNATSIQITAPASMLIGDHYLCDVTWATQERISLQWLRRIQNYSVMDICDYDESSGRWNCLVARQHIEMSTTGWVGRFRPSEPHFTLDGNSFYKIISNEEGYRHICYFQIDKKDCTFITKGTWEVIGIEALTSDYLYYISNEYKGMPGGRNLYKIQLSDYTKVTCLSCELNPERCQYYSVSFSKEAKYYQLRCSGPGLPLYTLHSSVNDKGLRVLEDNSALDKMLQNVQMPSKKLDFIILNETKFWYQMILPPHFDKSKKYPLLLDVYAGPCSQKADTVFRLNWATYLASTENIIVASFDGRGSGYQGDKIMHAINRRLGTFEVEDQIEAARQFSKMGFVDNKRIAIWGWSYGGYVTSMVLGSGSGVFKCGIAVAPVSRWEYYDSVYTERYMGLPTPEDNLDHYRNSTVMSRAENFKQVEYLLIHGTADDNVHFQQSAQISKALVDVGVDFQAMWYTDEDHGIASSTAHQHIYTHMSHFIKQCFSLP
Experimental: This assay was performed according to the DPP-4 Inhibitor Screening Kit (catalogue number: MAK203) product information (Sigma-Aldrich.com) with minor modifications to the volumes to suit the 96-well plate assay.

α-glucosidase [3] = target: T1, α-glucosidase; experiment: Mode of inhibition of α-glucosidase (Michaelis-Menten, Lineweaver-Burk); type: biochemical; details: substrate pNPG
Experimental: The Ki values were calculated with GraphPad Prism 9.2.0. (332) by plotting the reciprocal of maximum velocity (1/Vmax) (y-axis) against the derivative concentrations (x-axis). The types of inhibition parameters were all calculated with GraphPad Prism 9.2.0. Briefly, 30 µL of α-glucosidase enzyme (0.5 IU/mL) was dissolved in the 0.02 M phosphate buffer (pH 6.9), and then was pre-incubated at 37 °C with the above-mentioned derivative (50 µL) in a 96-well plate, for 5 min. In sequence, pNPG (0.125, 0.250, 0.500, 0.750, 1.000, 1.500, 2.000, 2.500, and 5.000 mM) was added and incubated in the reaction mixture at 37 °C for 30 min.

Compound	Effect on glucose uptake (liver cells (HEP-G2))	α-glucosidase inhibitory activity (in words) (α-glucosidase [1])	α-amylase inhibitory activity (in words) (α-amylase)	IC50 (aldose reductase)	PTP-1B inhibitory activity (in words) [2]	IC50 [2]	DPP-4 inhibition (DPP-4)	IC50 (DPP-4)	aldose reductase inhibitory activity (in words) (aldose reductase)	IC50 for the Inhibitory Activity Assays, PTP-1B [2]	DPP-4 inhibitory activity (in words) (DPP-4)	Vmax (α-glucosidase [3]; TZDD3 at 60 µg/mL)	Vmax (α-glucosidase [3]; TZDD3 at 120 µg/mL)
insulin	enhanced glucose uptake	–	–	–	–	–	–	–	–	–	–	–	–
C[C@H]1O[C@H](O[C@H]2[C@H](O)[C@@H](O)[C@@H](O[C@H]3[C@H](O)[C@@H](O)C(O)O[C@@H]3CO)O[C@@H]2CO)[C@H](O)[C@@H](O)[C@@H]1N[C@H]1C=C(CO)[C@@H](O)[C@H](O)[C@H]1O (stereo partly drawn) [Acarbose, reference compound]	–	significant (p < 0.05) inhibitory activity	significant (p < 0.05) inhibitory activity	–	–	–	–	–	–	–	–	–	–
Cc1cc(/C=C2/S/C(=N\c3ccccc3)NC2=O)c(C)n1-c1ccccc1 [TZDD4, (2Z,5E)-5-((2,5-dimethyl-1-phenyl-1H-pyrrol-3-yl)methylene)-2-(phenylimino)thiazolidin-4-one]	–	–	showed inhibitory activity	98.5 µM	weak inhibitory activity	693 µM	≥ 20%	192 µM	–	–	–	–	–
Cc1cc(/C=C2\SC(=O)N(CC(=O)O)C2=O)c(C)n1-c1ccccc1 [TZDD3, (Z)-2-(5-((2,5-Dimethyl-1-phenyl-1H-pyrrol-3-yl)methylene)-2,4-dioxothiazolidin-3-yl)acetic Acid]	–	–	concentration-dependent inhibitory activity	161 µM	–	–	–	213 µM	decreasing inhibition activity	unstable	very weak inhibitory activity	59.43	32.76
COc1cc(OC)c(/C=C2/SC(=O)N(CC(=O)N3CCN(c4ccccc4)CC3)C2=O)c(OC)c1 [TZDD1, (E)-5-(2,4,6-trimethoxybenzylidene)-3-(2-oxo-2-(4-phenylpiperazin-1-yl)ethyl)thiazolidine-2,4-dione]	–	–	showed inhibitory activity	55.3 µM	weak inhibitory activity	–	–	147 µM	concentration-dependent inhibitory activity	unstable	very weak inhibitory activity	–	–
Cc1cc(/C=C2\SC(=O)N(CC(=O)N3CCCC3)C2=O)c(C)n1-c1ccccc1 [TZDD2, (Z)-5-((2,5-Dimethyl-1phenyl-1H-pyrrol-3-yl)methylene)-3-(2-oxo-2-(pyrrolidin-1-yl)ethyl)thiazolidine-2,4-dione]	increase glucose uptake	–	showed inhibitory activity	201 µM	weak inhibitory activity	334 µM	≥ 20%	78 µM	–	–	relatively higher activity	–	–
O=c1c(O)c(-c2ccc(O)c(O)c2)oc2cc(O)cc(O)c12 [Quercetin, reference compound]	–	–	–	–	–	–	–	–	significant (p < 0.05) inhibitory activity	–	–	–	–
